Results: the supplement of paper PMC5908809

What was measured:
NK-YS (IL-2 2.5 ng/mL) [1] = assay: percent inhibition of viability; higher = more inhibition; conditions: 72 h
SNK-6 (IL-2 2.5 ng/mL) [2] = assay: as above; conditions: 72 h
IMC-1 (IL-2 20 ng/mL) [3] = assay: as above; conditions: 72 h
DERL-7 (IL-2 2.5 ng/mL) [4] = assay: as above; conditions: 72 h
KHYG-1 (IL-2 2.5 ng/mL) [5] = assay: as above; conditions: 72 h
[6] = tested on: normal primary NK cells, pool 1 (3 donors) (IL-2 2.5 ng/mL); assay: as above; conditions: 72 h
KAI3 (IL-2 2.5 ng/mL) [7] = assay: as above; conditions: 72 h
[8] = tested on: normal primary NK cells, pool 1 (3 donors), resting (IL-2 0 ng/mL); assay: as above; conditions: 72 h
[9] = tested on: normal primary NK cells, pool 2 (3 donors) (IL-2 2.5 ng/mL); assay: as above; conditions: 72 h
NK-92 (IL-2 2.5 ng/mL) [10] = assay: as above; conditions: 72 h
NKL (IL-2 2.5 ng/mL) [11] = assay: as above; conditions: 72 h
YT (IL-2 2.5 ng/mL) [12] = assay: as above; conditions: 72 h
[13] = tested on: normal primary NK cells, pool 3 (3 donors) (IL-2 2.5 ng/mL); assay: as above; conditions: 72 h
[14] = tested on: normal NK cells expanded with K562-aAPC; assay: as above; conditions: 72 h, IL-2 2.5 ng/mL
Protocol: (§1)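 Drug sensitivity and resistance testing on K562-aAPC-expanded normal NK cells: 5 concentrations (10-fold steps over a 10,000-fold range), 72 h at 37 °C, viability by CellTiter-Glo normalised to DMSO and benzethonium chloride controls; DSS from the fitted curve.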

NK-YS (IL-2 2.5 ng/mL) [15] = assay: drug sensitivity score (DSS) (DSS units); higher = more sensitive; extreme values may be limits of the assay; conditions: 72 h
SNK-6 (IL-2 2.5 ng/mL) [16] = assay: as above; conditions: 72 h
IMC-1 (IL-2 20 ng/mL) [17] = assay: as above; conditions: 72 h
DERL-7 (IL-2 2.5 ng/mL) [18] = assay: as above; conditions: 72 h
KHYG-1 (IL-2 2.5 ng/mL) [19] = assay: as above; conditions: 72 h
[20] = tested on: normal primary NK cells, pool 1 (3 donors) (IL-2 2.5 ng/mL); assay: as above; conditions: 72 h
KAI3 (IL-2 2.5 ng/mL) [21] = assay: as above; conditions: 72 h
[22] = tested on: normal primary NK cells, pool 1 (3 donors), resting (IL-2 0 ng/mL); assay: as above; conditions: 72 h
[23] = tested on: normal primary NK cells, pool 2 (3 donors) (IL-2 2.5 ng/mL); assay: as above; conditions: 72 h
NK-92 (IL-2 2.5 ng/mL) [24] = assay: as above; conditions: 72 h
NKL (IL-2 2.5 ng/mL) [25] = assay: as above; conditions: 72 h
YT (IL-2 2.5 ng/mL) [26] = assay: as above; conditions: 72 h
[27] = tested on: normal primary NK cells, pool 3 (3 donors) (IL-2 2.5 ng/mL); assay: as above; conditions: 72 h
[28] = tested on: normal NK cells expanded with K562-aAPC; assay: as above; conditions: 72 h; IL-2 2.5 ng/mL
Protocol: as §1

O=C(NOCC1CC1)c1ccc(F)c(F)c1Nc1ccc(I)cc1Cl (max concentration tested 10000 nM)
percent inhibition of viability [%]
Conditions	1 nM	10 nM	100 nM	1000 nM	10000 nM
DERL-7 (IL-2 2.5 ng/mL) [4]	2.61	5.1	12.3	29.5	78
IMC-1 (IL-2 20 ng/mL) [3]	2.83	1.66	4.76	7.54	65.8
KAI3 (IL-2 2.5 ng/mL) [7]	15	14.8	26.2	27.5	80.7
KHYG-1 (IL-2 2.5 ng/mL) [5]	2.03	1.47	16.1	39	82.4
NK-92 (IL-2 2.5 ng/mL) [10]	2.8	6.04	-10.5	-0.9	95.2
NK-YS (IL-2 2.5 ng/mL) [1]	3.04	1.78	6.53	13.3	59.9
NKL (IL-2 2.5 ng/mL) [11]	9.41	19	33.2	57.9	83.2
SNK-6 (IL-2 2.5 ng/mL) [2]	-8.27	-11.4	-27.2	-19.6	97.3
YT (IL-2 2.5 ng/mL) [12]	1.25	1.46	5.39	14.5	82.6
[6]	-7.14	-7.1	14.2	13	17.1
[8]	-5.53	0.69	6.91	8.17	44.4
[9]	-2.72	-4.8	-4.96	4.5	21
[13]	-3.37	0.57	-3.93	-0.21	13.6
[14]	-3.45	-0.57	-0.04	3.29	35.4

Conditions	drug sensitivity score
DERL-7 (IL-2 2.5 ng/mL) [18]	7.6
IMC-1 (IL-2 20 ng/mL) [17]	4.87
KAI3 (IL-2 2.5 ng/mL) [21]	11.1
KHYG-1 (IL-2 2.5 ng/mL) [19]	9.71
NK-92 (IL-2 2.5 ng/mL) [24]	5.23
NK-YS (IL-2 2.5 ng/mL) [15]	5.39
NKL (IL-2 2.5 ng/mL) [25]	16.6
SNK-6 (IL-2 2.5 ng/mL) [16]	4.38
YT (IL-2 2.5 ng/mL) [26]	6.98
[20]	3.11
[22]	3.64
[23]	1.26
[27]	0.13
[28]	2.2

Cn1cncc1[C@@](N)(c1ccc(Cl)cc1)c1ccc2c(c1)c(-c1cccc(Cl)c1)cc(=O)n2C [Tipifarnib] (max concentration tested 10000 nM)
percent inhibition of viability [%]
Conditions	1 nM	10 nM	100 nM	1000 nM	10000 nM
DERL-7 (IL-2 2.5 ng/mL) [4]	1.19	15	50.5	55.8	82.4
IMC-1 (IL-2 20 ng/mL) [3]	-0.42	7.67	12.7	14.3	84.9
KAI3 (IL-2 2.5 ng/mL) [7]	6.75	19.1	47.3	58.3	85.1
KHYG-1 (IL-2 2.5 ng/mL) [5]	-2.81	24	75.8	83	107
NK-92 (IL-2 2.5 ng/mL) [10]	-0.73	9.6	37.6	61.4	109
NK-YS (IL-2 2.5 ng/mL) [1]	-3.65	20.6	59.3	66.9	90
NKL (IL-2 2.5 ng/mL) [11]	-4.94	-3.92	26.4	59.5	92.4
SNK-6 (IL-2 2.5 ng/mL) [2]	-6.05	-1.97	53.1	67.8	79
YT (IL-2 2.5 ng/mL) [12]	3.74	11.7	34.3	55.4	106
[6]	5.62	11.4	32.4	24	96.1
[8]	-0.67	17.8	34.2	56.4	93
[9]	-6.39	6.93	13.5	23.8	83.5
[13]	-5.22	13.6	17.7	17.1	53.4
[14]	-0.6	11.6	28.5	39.2	75.8

Conditions	drug sensitivity score
DERL-7 (IL-2 2.5 ng/mL) [18]	18.6
IMC-1 (IL-2 20 ng/mL) [17]	7.09
KAI3 (IL-2 2.5 ng/mL) [21]	19.1
KHYG-1 (IL-2 2.5 ng/mL) [19]	28.6
NK-92 (IL-2 2.5 ng/mL) [24]	17.5
NK-YS (IL-2 2.5 ng/mL) [15]	22.5
NKL (IL-2 2.5 ng/mL) [25]	14.4
SNK-6 (IL-2 2.5 ng/mL) [16]	20.7
YT (IL-2 2.5 ng/mL) [26]	16.2
[20]	10.5
[22]	16.3
[23]	7.58
[27]	6.12
[28]	11.9

O[C@H]1CC[C@H](Nc2ncc3nc(Nc4c(F)cc(F)cc4F)n([C@H]4CCOC4)c3n2)CC1 [Tanzisertib] (max concentration tested 10000 nM)
percent inhibition of viability [%]
Conditions	1 nM	10 nM	100 nM	1000 nM	10000 nM
DERL-7 (IL-2 2.5 ng/mL) [4]	2.01	0.84	5.01	1.8	18.5
IMC-1 (IL-2 20 ng/mL) [3]	-1.71	-1.33	2.23	-2.89	5.65
KAI3 (IL-2 2.5 ng/mL) [7]	-8.76	-8.77	4.38	-3.26	2.19
KHYG-1 (IL-2 2.5 ng/mL) [5]	0.6	1.16	7.05	3.25	12.8
NK-92 (IL-2 2.5 ng/mL) [10]	-1.51	-5.43	11.5	-0.78	4.63
NK-YS (IL-2 2.5 ng/mL) [1]	-2.74	-2.64	8.64	8.4	27.7
NKL (IL-2 2.5 ng/mL) [11]	-12.2	-7.14	8.81	20.3	40
SNK-6 (IL-2 2.5 ng/mL) [2]	-5.24	-3.37	-1.51	-9.49	-28.9
YT (IL-2 2.5 ng/mL) [12]	1.29	0.43	6.25	4.44	17.9
[6]	-1.02	-9.12	-4.55	-5.56	12.8
[8]	-2.07	-5.9	3.76	-27.5	-23.7
[9]	-13.6	-1.21	2.95	-6.75	12.9
[13]	-10.2	-3.98	0.77	-8.69	3.78
[14]	-0.53	1.03	-5.53	1.96	16.8

Conditions	drug sensitivity score
DERL-7 (IL-2 2.5 ng/mL) [18]	0.7
IMC-1 (IL-2 20 ng/mL) [17]	0
KAI3 (IL-2 2.5 ng/mL) [21]	0
KHYG-1 (IL-2 2.5 ng/mL) [19]	0
NK-92 (IL-2 2.5 ng/mL) [24]	0
NK-YS (IL-2 2.5 ng/mL) [15]	1.7
NKL (IL-2 2.5 ng/mL) [25]	4.27
SNK-6 (IL-2 2.5 ng/mL) [16]	0
YT (IL-2 2.5 ng/mL) [26]	0.43
[20]	0.03
[22]	0
[23]	0.02
[27]	0
[28]	0.57
